# Data reported in patent publication US20240197712A1, “TGF-BETA INHIBITION FOR IMMUNODEFICIENCY VIRUS REACTIVATION FROM LATENCY, ENHANCEMENT OF IMMUNODEFICIENCY VIRUS-SPECIFIC RESPONSES AND IMMUNODEFICIENCY VIRUS CURE” (Northwestern University, priority 2022, published 2024).
# Assays:
# SIVmac251 or SIVmac239 = experiment: Plasma viral load, SIV-infected ART-treated macaques, 1-2 weeks galunisertib; format: in vivo, rhesus macaques
# Protocol: Rhesus macaques (n=7) were infected with SIVmac251 or SIVmac239 rectally or intravenously (FIG. 9) and ART (Tenofovir [PMPA], Emtricitabine [FTC] and Dolutegravir [DTG]) was initiated between week 12 and 17 post infection. Galunisertib treatment was initiated after 26 or 27 weeks on ART for 7 or 14 days. Galunisertib powder (MedChemExpress—MCE, NJ, USA) was dissolved in water and given orally in a treat twice daily at 5 mg/kg or 10 mg/kg (FIG. 9). Blood viral load was monitored biweekly before and during cART and every 3-4 days during 438 Galunisertib treatment. Colorectal biopsies and LN FNA were collected before and after galunisertib treatment.
# Blood was collected in EDTA tubes and plasma was separated by density gradient centrifugation and used for the determination of plasma VL by SIVgag qRT-PCR at NIRC or at Leidos (Quantitative Molecular Diagnostics Core, AIDS and Cancer Virus Program Frederick National Laboratory). Tissue VL from snap frozen colorectal biopsies and LN FNA were performed at Leidos (A14X004, A14X005 and A14X013) as described in (78) or, for the remaining macaques and from PBMC of all macaques they were performed as described in (77).
# primary CD4+ T cells = experiment: Primary CD4+ T cell model of HIV-1 latency, p24 ICS; format: cell-based, human; settings: primary CD4+ T cells infected with HIV ADA; PMA 100 ng/ml; TGF-β1 10 ng/ml or galunisertib 1 μM
# Protocol: Next, the impact of TGF-β1 on a primary model of HIV-1 latency was tested using freshly isolated CD4+ T cells. The experiment was based on the model by Berkhout and colleagues (50) with some modifications (FIG. 1F). Specifically, CD4+ T cells were isolated from HIV-1 uninfected, de-identified donor PBMC and activated them with PHA and IL-2 for 3 days before infection via spinoculation with HIV ADA. After extensive wash of the viral inoculum, cells were cultured 48 hrs in presence of T20 (enfuvirtide) to avoid viral spread beyond the cells with initial integrations. The overall initial infection achieved was very low despite the spinoculation step (˜0.1% of p24-gag+ cells, FIGS. 3A-3B).
# Blood from de-identified donors was obtained from the New York Blood Bank and used as source of CD4 T cells for the primary model of HIV latency in vitro. Total CD4+ T cells were isolated with the CD4 T cells isolation kit (Miltenyi) and activated with 5 μg/ml of PHA and 50 U/ml of IL-2 for 3 days. After washing out the PHA, cells were infected with 200TCID50 of HIV-ADA (NIH HIV Reagent Program) in 12 or 24 wells/plates and spinoculated at 1200 g for 2 hrs at 25° C. After additional 3 hrs of incubation at 37° C., viral inoculum was washed and cells plated in presence of T20 (Enfurtivide acetate salt, 1 μM NIH AIDS reagent program). […]
# SIVmac239M2 = experiment: SIV-IPDA intact and total provirus in PBMC; format: in vivo, rhesus macaques
# Protocol: To determine the impact of galunsiertib on SIV reservoir, CA-vDNA was measured in PBMC, colorectal biopsies and lymph nodes (LN). […] In the gut and LN (right axillary), decreases range from a Log to ⅓ of a Log (gut: median 0.77; range:0.33-0.94 folds LN: median: 0.93; range:0.33-0.98 folds decrease). In the PBMC the decrease was slightly less pronounced with a median half Log decrease ([…] median: 0.58; range 0.28-0.88 folds decrease). However, the comparison for the PBMCs was between week ˜35 and week ˜45 (end of cycle 3, AC3) instead of the end of all 4 cycles, because a snap frozen pellet was not available at the end of cycle 4 for PBMCs. The SIV reservoir in PBMCs was also monitored by SIV-IPDA comparing before cycle 1 (BC1) to the end of cycle 4 (AC4). […] Intact provirus declined similarly to the CA-vDNA with a median of half Log (median: 0.53; range:0-0.71 folds decrease).
# Blood was collected in EDTA tubes and plasma was separated by density gradient centrifugation and used for the determination of plasma VL by SIVgag qRT-PCR at NIRC or at Leidos (Quantitative Molecular Diagnostics Core, AIDS and Cancer Virus Program Frederick National Laboratory). Tissue VL from snap frozen PBMC pellets, colorectal biopsies and LN FNA were performed as described in (77). SIV-TILDA was performed on freshly stored PBMC before cycle 1 and at the end of cycle 4 of galunisertib by Accelevir, Baltimore, MD.
# SIV-env = experiment: ImmunoPET/CT with 64Cu-DOTA-F(ab')2 p7D3 anti SIV-env probe, 1-2 weeks galunisertib; format: in vivo, rhesus macaques
# Protocol: PET/CT imaging with a 64Cu-DOTA-F(ab′)2 p7D3 anti SIV-env probe were performed before Galunisertib treatment, after 7 days in all macaques and after 14 days in the macaques that were treated for 14 days. Briefly, a solution of 64Cu was incubated with DOTA-F(ab′)2 p7D3 antibody reconstituted with 50 μL of IM NH40Ac, pH of 5.5 and incubated for 1 hour at 37° C.; then purified by ultrafiltration in a desalting spin column (10K MWCO, Thermo Fisher) and finally eluted with sterile saline prior to injection. The labeled probe was injected IV via catheters, 24 h before PET-CT scanning. For taking PET/CT scans, the macaques were sedated with ketamine HCL (10 mg/kg), and/or telazol (4-8 mg/kg) via intramuscular and supplemented with ketamine (5 mg/Kg) as needed to perform the procedure. The macaque's body was immobilized in dorsal recumbency on the scanner table and PET/CT scans were acquired using a Philips Gemini TF64 PET/CT scanner. […]
# PET Image analysis was performed using the MIM software. PETCT fusions were generated scaled according to calculated Standardized Uptake Values. […]
# Regions of interest (ROI) were isolated using a combination of the Region Grow function and manual contouring on a representative scan. […] The signals of the whole body as well as within these ROI were quantified, and Max, Mean, and Total SUVs were calculated for further analyses. […]
structure (smiles),measurement,setting,value
"Cc1cccc(-c2nn3c(c2-c2ccnc4ccc(C(N)=O)cc24)CCC3)n1 [galunisertib, Galunisertib]",macaques with increase in pVL over 100 copies/ml,"SIVmac251 or SIVmac239; 5 or 10 mg/kg orally twice per day, 1 or 2 weeks",2 of the 7
same,increase in pVL in macaque not continuously suppressed before treatment,SIVmac251 or SIVmac239; single macaque (A14X),> 2 Log
same,PMA-induced frequency of p24-gag+ cells,primary CD4+ T cells,did not alter
same,decrease of intact pro-virus in PBMC,"SIVmac239M2; BC1 (week 35 pi) to AC4 (week 49 pi), median",3 fold
same,"intact provirus decline by SIV-IPDA, median","SIVmac239M2; PBMC, BC1 vs AC4",0.53 folds
same,"intact provirus decline by SIV-IPDA, range","SIVmac239M2; PBMC, BC1 vs AC4",0-0.71 folds
same,total and intact provirus by SIV-IPDA,"SIVmac239M2; PBMC, BC1 vs AC4",significant decreases
same,macaques with clear extensive viral reactivation in the gut (PET signal),SIV-env; day 7 or 14 of treatment vs baseline,3 of the 7
same,macaques with increased SUVtot in PET/CT images in gut and lymph nodes,"SIV-env; oral galunisertib, aviremic long-term ART-treated macaques",5 out of 7
